Patent publication US20110224240A1 (Myrexis, Inc., priority 2010, published 2011)
Values joined by “and” are separate entries in the source; they are usually repeats but may differ in a detail not shown here. Equal entries are not always repeated. Where two headings read alike, the source gives them in different places. Marks after values point to notes of the source that are not given here.

Experiments:
MCF-7/VP (MRP-1) = experiment: Multidrug resistant cell assay, cytotoxicity; details: Homo sapiens, MCF7-VP, 72 h, read-out: Various MDR Cell Line Cytotoxicity IC50
[1] = Pharmacokinetic study in mice, brain; type: in vivo
Protocol: (§1) Animals were dosed with approximately 2.5 mg/kg i.v. in the tail vein or 5, 10, 30, or 60 mg/kg p.o. in fed and 60 mg/kg p.o. in a fasted state. Blood samples and whole brains were collected from five mice at each of the […] collection time points (approximately 0.05, 0.25, 1.0, 2.0, 4.0, 8.0, 12.0 and 24.0 hours) after administration of the dose. Plasma was collected from blood samples, and whole brain sample were homoginized. Both tissues were analyzed for the concentration of Compound 1. Pharmacokinetic parameters were estimated by non-compartmental analysis using WinNonlin.

[2] = Pharmacokinetic study in a primate, plasma; type: in vivo, cynomolgus monkey; details: for Compound 1 Plasma Concentration: cynomolgus monkey, oral 20 mg/kg
Protocol: A single non-naïve male cynomolgus monkey was assigned to this study. […] Compound 1 was administered once orally via a gavage tube. The gavage tube was rinsed with water and removed. Blood was removed through the femoral artery/vein into a tube containing K3EDTA. The samples were centrifuged and the resulting plasma was separated and stored at approximately −70° C. until shipment to the analysis site. At the analysis site, the samples were stored at −20° C. until the day of analysis.
Plasma samples were analyzed for Compound 1 concentration using a LC-MS/MS method. The range of quantitation was 5-5000 ng/mL and utilized a 0.1 mL plasma sample volume. Concentration-time curves were constructed using WinNonlin (version 5.1.1).

[3] = Pharmacokinetic study in mice, plasma; type: in vivo
Protocol: as §1

[4] = male cynomolgus monkey, fasted, single oral dose 20 mg/kg, plasma
[5] = Swiss Webster, mouse, plasma, iv, 2.5 mg/kg, mice, Not Fasted
[6] = Swiss Webster, mouse, plasma, po, 60 mg/kg, mice, Fasted
[7] = Swiss Webster, mouse, plasma, po, 60 mg/kg, mice, Not Fasted

COc1ccc(N(C)c2nc(CN)nc3ccccc23)cc1 [Compound 1]
IC50 (MCF-7/VP (MRP-1)): 13 nM
Kp ([1]; Swiss Webster, mouse, brain, other: oral or intravenous, after oral or intravenous dosing, read-out: exposure in the brain relative to that in the plasma): ~7
Tmax ([1]; Swiss Webster, mouse, brain, mice, Not Fasted, PO, 60 mg/kg): 2 h
half-life ([1]; Swiss Webster, mouse, brain, mice, Not Fasted, PO, 60 mg/kg, read-out: Brain t½ (converted)): 540 min
Brain AUC(0-inf) ([1]; mice, Not Fasted, PO, 60 mg/kg): 77290 ng·h/mL
Brain CL ([1]; mice, Not Fasted, PO, 60 mg/kg): 776 mL/h/kg
Brain Cmax ([1]; mice, Not Fasted, PO, 60 mg/kg): 6030 ng/mL and 20.4 μM
Brain V ([1]; mice, Not Fasted, PO, 60 mg/kg): 10109 mL/kg
Kp ([1]; mouse, brain, po, Swiss Webster mice, single 60 mg/kg p.o. dose, read-out: Brain concentrations relative to plasma levels (AUC0-∞)): ~7
Compound 1 Plasma Concentration ([2]; Post Dose Sample Time 0): 3.08* ng/mL
Compound 1 Plasma Concentration ([2]; Post Dose Sample Time 0.25): 27.40 ng/mL
Compound 1 Plasma Concentration ([2]; Post Dose Sample Time 0.5): 64.15 ng/mL
Compound 1 Plasma Concentration ([2]; Post Dose Sample Time 1): 112.05 ng/mL
Compound 1 Plasma Concentration ([2]; Post Dose Sample Time 2): 166.01 ng/mL
Compound 1 Plasma Concentration ([2]; Post Dose Sample Time 6): 18.72 ng/mL
Compound 1 Plasma Concentration ([2]; Post Dose Sample Time 12): 3.91* ng/mL
oral bioavailability ([2]; male cynomolgus monkey dosed orally at 20 mg/kg): bioavailable
AUC(0-inf) [2, 4]: 536 ng·h/mL
CL/F [2, 4]: 622 mL/min/kg
Cmax [2, 4]: 166 ng/mL
Tlast [2, 4]: 12.0 h
Tmax [2, 4]: 2 h
half-life [2, 4]: 114 min
Vd/F ([2]; male cynomolgus monkey, fasted, single oral dose 20 mg/kg, plasma, read-out: Vz/F_obs): 102 L/kg
AUC(0-inf) [3, 5]: 467 ng·h/mL
Cmax [3, 5]: 513 ng/mL and 1.7 µM
Tmax [3, 5]: 3 min
half-life ([3]; Swiss Webster, mouse, plasma, iv, 2.5 mg/kg, mice, Not Fasted, IV, 2.5 mg/kg, read-out: Plasma t½ (converted)): 372 min
half-life ([3]; Swiss Webster, mouse, plasma, po, 60 mg/kg, 60 mg/kg dose in mice, oral, read-out: half life (t1/2) (converted)): ~600 min
bioavailability ([3]; Swiss Webster, mouse, plasma, po, 60 mg/kg, 60 mg/kg dose in mice, read-out: oral bioavailability): ~100%
AUC(0-inf) [3, 6]: 12900 ng·h/mL
Cmax [3, 6]: 1090 ng/mL and 3.7 µM
Tmax [3, 6]: 60 min
bioavailability ([3]; Swiss Webster, mouse, plasma, po, 60 mg/kg, mice, Fasted, PO, 60 mg/kg, read-out: % F): 115%
half-life ([3]; Swiss Webster, mouse, plasma, po, 60 mg/kg, mice, Fasted, PO, 60 mg/kg, read-out: Plasma t½ (converted)): 1100 min
AUC(0-inf) [3, 7]: 10700 ng·h/mL
Cmax [3, 7]: 1120 ng/mL and 3.8 µM
Tmax [3, 7]: 15 min
bioavailability ([3]; Swiss Webster, mouse, plasma, po, 60 mg/kg, mice, Not Fasted, PO, 60 mg/kg, read-out: % F): 96%
half-life ([3]; Swiss Webster, mouse, plasma, po, 60 mg/kg, mice, Not Fasted, PO, 60 mg/kg, read-out: Plasma t½ (converted)): 648 min
clearance ([3]; Swiss Webster, mouse, plasma, mice, Not Fasted, IV, 2.5 mg/kg, read-out: Plasma CL (converted)): 89.3 mL/min/kg
bioavailability after oral dosing ([3]; mice): almost completely bioavailable
oral dose proportionality to plasma Cmax ([3]; mice dosed orally up to at least 60 mg/kg): Dose proportional increases in Cmax
differences in pharmacokinetics between fed and fasted animals ([3]; mice, 60 mg/kg p.o.): No significant differences in pharmacokinetics
Plasma CL ([3]; mice, Fasted, PO, 60 mg/kg): 77.8 mL/min/kg
Plasma V ([3]; mice, Fasted, PO, 60 mg/kg): 123424 mL/kg
Plasma V ([3]; mice, Not Fasted, IV, 2.5 mg/kg): 47759 mL/kg
Plasma CL ([3]; mice, Not Fasted, PO, 60 mg/kg): 93.05 mL/min/kg
Plasma V ([3]; mice, Not Fasted, PO, 60 mg/kg): 86914 mL/kg
